What was measured:
HeLa = experiment: Antiproliferative activity against human HeLa cells assessed as inhibition of cell proliferation incubated for 24 hrs by MTT assay; format: functional, cell-based
MCF7 [1] = experiment: Anticancer activity against human MCF7 cells incubated for 72 hrs by MTT assay; format: functional, cell-based; conditions: MCF7, 72 h
[2] = Cytotoxicity against human L02 cells assessed as inhibition of cell growth incubated for 24 hrs in presence of foetal bovine serum by MTT assay; format: toxicity, cell-based
[3] = Cytotoxicity against human MCF-10A cells assessed as inhibition of cell proliferation incubated for 24 hrs by CCK-8 assay; format: toxicity, cell-based
MDA-MB-231 [4] = experiment: Antiproliferative activity against human MDA-MB-231 cells assessed as inhibition of cell growth incubated for 24 hrs in presence of foetal bovine serum by MTT assay; format: functional, cell-based; conditions: MDA-MB-231, 24 h
[5] = Cytotoxicity against human MCF-10A assessed as inhibition of cell growth incubated for 24 hrs in presence of foetal bovine serum by MTT assay; format: toxicity, cell-based; conditions: MCF-10A cells
Fibroblast = experiment: Cytotoxicity against human skin fibroblast cells incubated for 72 hrs by MTT assay; format: functional, cell-based
[6] = Antitubulin activity against bovine brain tubulin polymerization preincubated with compound followed by GTP addition by turbidimetry-based spectrophotometric method; parameters: species or system Bos taurus
[7] = Cytotoxicity against African green monkey VERO cells assessed as inhibition of cell growth incubated for 24 hrs by MTT assay; format: toxicity, cell-based, Chlorocebus sabaeus
[8] = Cytotoxicity against human skin fibroblast cells assessed as reduction in cell viability incubated for 72 hrs by MTT assay; format: toxicity, cell-based
MCF7 [9] = experiment: Antiproliferative activity against human MCF7 cells assessed as inhibition of cell growth incubated for 24 hrs by MTT assay; format: functional, cell-based; conditions: MCF7, 24 h
SW872 = experiment: Anticancer activity against human SW872 cells assessed as inhibition of cell growth incubated for 72 hrs by MTT assay; format: functional, cell-based; conditions: SW872, 72 h
[10] = Anticancer activity against human A875 cells assessed as inhibition of cell growth incubated for 72 hrs by MTT assay; format: functional, cell-based; conditions: A875, 72 h
MDA-MB-231 [11] = experiment: Antiproliferative activity against human MDA-MB-231 cells incubated for 24 hrs by MTT assay; format: functional, cell-based; conditions: MDA-MB-231, 24 h
BT-474 = experiment: Antiproliferative activity against human BT-474 cells assessed as inhibition of cell growth incubated for 24 hrs in presence of foetal bovine serum by MTT assay; format: functional, cell-based; conditions: BT-474, 24 h
HepG2 [12] = experiment: Antiproliferative activity against human HepG2 cells incubated for 24 hrs by MTT assay; format: functional, cell-based; conditions: HepG2, 24 h
HepG2 [13] = experiment: Anticancer activity against human HepG2 cells assessed as inhibition of cell growth incubated for 24 hrs by MTT assay; format: functional, cell-based; conditions: HepG2, 24 h

IC50 (HeLa): 5.75 µM
IC50 (MCF7 [1]): 2.11 µM
IC50 (MDA-MB-231 [4]): 2.88 µM
IC50 [6]: 16.8 µM
IC50 (MCF7 [9]): 7.75 µM
IC50 (SW872): 0.76 µM
IC50 (MDA-MB-231 [11]): 108 µM
IC50 (BT-474): 5.74 µM
IC50 (HepG2 [12]): 2.73 µM
IC50 (HepG2 [13]): 0.42 µM
SMILES: CC(C)=CC[C@@H](O)C1=CC(=O)c2c(O)ccc(O)c2C1=O [SHIKONIN]
IC50 at 24 h [2]: 10.5 µM
IC50 at 24 h [3]: 20.9 µM
IC50 at 24 h [5]: 23.5 µM
IC50 (Fibroblast): 1.24 µM
IC50 at 24 h [7]: 6.76 µM
IC50 at 72 h [8]: 1.2 µM
IC50 [10]: 0.58 µM

Source: ChEMBL document CHEMBL5137008, “Recent advances of antitumor shikonin/alkannin derivatives: A comprehensive overview focusing on structural classification, synthetic approaches, and mechanisms of action” (Eur J Med Chem, 2022)
